# Test system: imiquimod-induced psoriatic mice
# Settings: subcutaneous injection of CysA (3 mg/mL, 100 μL, 7 times, day 1 to day 7); psoriasis mice; HPLC; mean ± SD
# Procedure: BALB/c mice were used to develop the psoriatic model. […] The back hair of the mice was shaved.
# Briefly, blood (500 μL) was collected from the mice orbit and mixed with 4 mL ether. […] Mice skin, liver, and kidney samples were collected and weighed. […] In addition, the mice skin in the treatment area and the non-treated area was cryo-sectioned and stained with hematoxylin and eosin. The epidermal thickness of each skin sample was measured at three random sites with ImageJ software (V1.8.0).
substance,measurement,value
cyclosporine A [CysA],drug accumulation in mice kidney,64.07 ± 10.25 (μg/g)/mg
